In ChEMBL document CHEMBL5154722, “Identification of new potent anticancer derivatives through simplifying the core structure and modification on their 14- hydroxyl group from oridonin” (Eur J Med Chem, 2022):
pIC50: −log10 of the molar value. Active and inactive are the calls of the source. The calls are words filed in the database; no cut-off is given here.

Assays:
[1] = tested on: K562; experiment: Induction of apoptosis in human K562 cells assessed as late apoptotic cells at 50 nM measured after 48 hrs by Annexin V-FITC/PI staining based flow cytometry method (reference value: 3.53%); type: functional
[2] = tested on: K562; experiment: Induction of apoptosis in human K562 cells assessed as viable cells at 25 nM measured after 48 hrs by Annexin V-FITC/PI staining based flow cytometry method (reference value: 94.41%); type: functional; details: read-out: Activity
[3] = tested on: K562; experiment: Induction of apoptosis in human K562 cells assessed as viable cells at 50 nM measured after 48 hrs by Annexin V-FITC/PI staining based flow cytometry method (reference value: 94.41%); type: functional; details: read-out: Activity
[4] = tested on: MGC-803; experiment: Antiproliferative activity against human MGC-803 cells assessed as reduction in cell viability incubated for 72 hrs by MTT assay; type: functional, cell-based; details: MGC-803, 72 h
[5] = tested on: H22; experiment: Antitumor activity against mouse H22 cells allografted in ICR mouse assessed as reduction in tumor volume at 20 mg/kg, iv administered once a day for 21 days after 7 days of tumor implantation measured every two days; type: functional, organism-based; details: time 21.0 day
[6] = tested on: K562; experiment: Induction of apoptosis in human K562 cells assessed as late apoptotic cells at 25 nM measured after 48 hrs by Annexin V-FITC/PI staining based flow cytometry method (reference value: 3.53%); type: functional
[7] = tested on: K562; experiment: Induction of cell cycle arrest in human K562 cells assessed as downregulation of cdc2 measured after 48 hrs by Western blot analysis; type: functional, cell-based; details: dose 25-100 nM, DDE = dose-dependent effect
[8] = Toxicity in ICR mouse allografted with mouse H22 cells assessed as effect on liver morphology at 10 to 20 mg/kg, iv administered once a day for 21 days after 7 days of tumor implantation by H and E staining method; type: organism-based; details: in vivo, 504 h, dose 10-20 mg/kg, time 21 day
[9] = tested on: HeLa; experiment: Antiproliferative activity against human HeLa cells assessed as reduction in cell viability incubated for 72 hrs by MTT assay; type: functional, cell-based
[10] = tested on: H22; experiment: Antitumor activity against mouse H22 cells allografted in ICR mouse assessed as reduction in tumor weight at 10 mg/kg, iv administered once a day for 21 days after 7 days of tumor implantation; type: functional; parameters: scale not given: the % may be the effect or the level left; details: time 21 day
[11] = tested on: K562; experiment: Induction of apoptosis in human K562 cells assessed as early apoptotic cells at 50 nM measured after 48 hrs by Annexin V-FITC/PI staining based flow cytometry method (reference value: 1.62%); type: functional
[12] = tested on: K562; experiment: Inhibition of MAPK signaling pathway in human K562 cells assessed as reduction in MEK level measured after 48 hrs by Western blot analysis; type: cell-based; details: dose 25-100 nM, DDE = dose-dependent effect
[13] = tested on: K562; experiment: Induction of apoptosis in human K562 cells assessed as necrotic cells at 50 nM measured after 48 hrs by Annexin V-FITC/PI staining based flow cytometry method (reference value: 0.44%); type: functional
[14] = tested on: K562; experiment: Disruption of mitochondria in human K562 cells assessed as reduction of mitochondrial membrane potential measured after 48 hrs by JC-1 probe based fluorescence based assay; type: functional, cell-based; details: dose 25-100 nM, DDE = dose-dependent effect
[15] = tested on: K562; experiment: Induction of apoptosis in human K562 cells assessed as increase in Bax level at 25 to 100 nM measured after 48 hrs by Western blot analysis; type: functional, cell-based; details: dose 25-100 nM
[16] = tested on: K562; experiment: Induction of cell cycle arrest in human K562 cells assessed as accumulation of cells at G1 phase at 100 nM measured after 48 hrs by propidium iodide staining-based flow cytometric analysis (reference value: 47.40%); type: functional
[17] = tested on: K562; experiment: Induction of apoptosis in human K562 cells assessed as increase in Bax/Bcl-2 ratio at 25 to 100 nM measured after 48 hrs by Western blot analysis; type: functional, cell-based; details: dose 25-100 nM
[18] = Toxicity in ICR mouse allografted with mouse H22 cells assessed as effect on kidney morphology at 10 to 20 mg/kg, iv administered once a day for 21 days after 7 days of tumor implantation by H and E staining method; type: organism-based; details: in vivo, 504 h, dose 10-20 mg/kg, time 21 day
[19] = tested on: K562; experiment: Induction of apoptosis in human K562 cells assessed as reduction in phosphorylated ERK level measured after 48 hrs by Western blot analysis; type: functional, cell-based; details: dose 25-100 nM, DDE = dose-dependent effect
[20] = tested on: K562; experiment: Induction of cell cycle arrest in human K562 cells assessed as accumulation of cells at G2 phase at 50 nM measured after 48 hrs by propidium iodide staining-based flow cytometric analysis (reference value: 15.30%); type: functional
[21] = tested on: K562; experiment: Induction of cell cycle arrest in human K562 cells assessed as accumulation of cells at G1 phase at 50 nM measured after 48 hrs by propidium iodide staining-based flow cytometric analysis (reference value: 47.40%); type: functional
[22] = Selectivity index, ratio of IC50 for human L02 cells to IC50 for human SMMC-7721 cells; type: toxicity; details: L02 cells and SMMC-7721 cells, read-out: Ratio IC50
[23] = tested on: K562; experiment: Induction of cell cycle arrest in human K562 cells assessed as accumulation of cells at G2 phase at 100 nM measured after 48 hrs by propidium iodide staining-based flow cytometric analysis (reference value: 15.30%); type: functional
[24] = tested on: K562; experiment: Induction of cell cycle arrest in human K562 cells assessed as accumulation of cells at S phase at 100 nM measured after 48 hrs by propidium iodide staining-based flow cytometric analysis (reference value: 37.29%); type: functional
[25] = tested on: K562; experiment: Induction of cell cycle arrest in human K562 cells assessed as accumulation of cells at S phase at 50 nM measured after 48 hrs by propidium iodide staining-based flow cytometric analysis (reference value: 37.29%); type: functional
[26] = tested on: K562; experiment: Induction of cell cycle arrest in human K562 cells assessed as accumulation of cells at G1 phase at 25 nM measured after 48 hrs by propidium iodide staining-based flow cytometric analysis (reference value: 47.40%); type: functional
[27] = tested on: K562; experiment: Induction of apoptosis in human K562 cells assessed as necrotic cells at 100 nM measured after 48 hrs by Annexin V-FITC/PI staining based flow cytometry method (reference value: 0.44%); type: functional
[28] = tested on: K562; experiment: Induction of apoptosis in human K562 cells assessed as reduction in phosphorylated Akt level measured after 48 hrs by Western blot analysis; type: functional, cell-based; details: dose 25-100 nM, DDE = dose-dependent effect
[29] = tested on: MCF7; experiment: Antiproliferative activity against human MCF7 cells assessed as reduction in cell viability incubated for 72 hrs by MTT assay; type: functional, cell-based; details: MCF7, 72 h
[30] = tested on: K562; experiment: Inhibition of MAPK signaling pathway in human K562 cells assessed as reduction in phosphorylated MEK measured after 48 hrs by Western blot analysis; type: cell-based; details: dose 25-100 nM, DDE = dose-dependent effect
[31] = tested on: MDA-MB-231; experiment: Antiproliferative activity against human MDA-MB-231 cells assessed as reduction in cell viability incubated for 72 hrs by MTT assay; type: functional, cell-based; details: MDA-MB-231, 72 h
[32] = Toxicity in ICR mouse allografted with mouse H22 cells assessed as effect on heart morphology at 10 to 20 mg/kg, iv administered once a day for 21 days after 7 days of tumor implantation by H and E staining method; type: organism-based; details: in vivo, 504 h, dose 10-20 mg/kg, time 21 day
[33] = tested on: K562; experiment: Induction of apoptosis in human K562 cells assessed as intracellular ROS generation at 100 uM measured after 48 hrs by DCFH-DA staining based flow cytometry method (reference value: 0.41%); type: functional
[34] = tested on: K562; experiment: Induction of apoptosis in human K562 cells assessed as intracellular ROS generation measured after 48 hrs by DCFH-DA staining based flow cytometry method; type: functional, cell-based; details: dose 25-100 nM, DDE = dose-dependent effect

C=C1C(=O)[C@]23[C@H](OC(=O)/C=C/c4ccncc4)[C@H]1CC[C@H]2[C@]12CCCC(C)(C)[C@H]1[C@H](O)[C@@]3(O)OC2
Activity [1]: 19.26%
viability at 0.025 µM [2]: 82.5%
viability at 0.05 µM [3]: 66.7%
pIC50 [4]: 6.21
Activity [5]: Active
Activity [6]: 6.87%
Activity [7]: Dde
Activity [8]: Non-Toxic
pIC50 [9]: 5.95
Activity [10]: 74.08%
Activity [11]: 13.97%
Activity [12]: Dde
Activity [13]: 0.07%
Activity [14]: Dde
Activity [15]: Active
Activity [16]: 33.85%
Activity [17]: Active
Activity [18]: Non-Toxic
Activity [19]: Dde
Activity [20]: 26.72%
Activity [21]: 36.76%
selectivity ratio [22]: 7.12
Activity [23]: 30.83%
Activity [24]: 35.31%
Activity [25]: 36.52%
Activity [26]: 39.5%
Activity [27]: 3.25%
Activity [28]: Dde
pIC50 [29]: 6.15
Activity [30]: Dde
pIC50 [31]: 6.38
Activity [32]: Non-Toxic
Activity [33]: 63.43%
Activity [34]: Dde
